Laboratory results as given in patent US9981986B2, “Antimicrobial compounds” (OXFORD UNIVERSITY INNOVATION LIMITED, priority 2012, dated 2018).
≈ marks a conversion by molar mass, not a printed value.

How the values were obtained:
E. coli X580 = test: hole-plate method, inhibition zones, E. coli; type: cell-based; details: inhibition zone diameter
Experimental: (§1) Various compounds illustrative of the compounds of the present invention were synthesised and tested for their bioactivity. Microbiological assays were performed by the hole-plate method with the test organism Staphylococcus aureus N.C.T.C. 6571 or E. coli X580. […] The diameters of the resultant inhibition zones were measured.

[1] = test system: Staphylococcus aureus N.C.T.C. 6571; test: hole-plate method, inhibition zones, S. aureus; type: cell-based; details: inhibition zone diameter
Experimental: as §1

[2] = test system: E. faecium 1, VanA (vancomycin resistant); test: MIC determination (bacteria), E2; type: cell-based
Experimental: (§2) MIC Determination (Bacteria);
(§3) MICs were determined based on Clinical and Laboratory Standards Institute (CLSI) methodology (Methods for dilution antimicrobial susceptibility tests for bacteria that grow aerobically; Approved Standard—seventh edition. 2006, M7-A7, CLSI, Wayne Pa.) by a 2-fold broth dilution technique in Mueller Hinton (pH7.4 Biorad). For S. pneumoniae, the medium was supplemented with 2.5% laked horse blood. For H. influenzae, the medium was haemophilus test medium (H.T.M.). Overnight cultures were diluted to obtain the final inoculum of 10^5 cfu/well. Incubation was 37° C. overnight in ambient air. The MIC was defined as the lowest concentration which inhibited all visual growth and expressed in μg/ml. For each bacterial species, all of the molecules were tested in the same experiment in order to give a head-to-head comparison.

E. Coli RNAP = E. Coli RNAP (Escherichia coli, UniProt P0A8T7+P0A8V2); test: In vitro activity against E. Coli RNAP; type: biochemical; details: read-out: RNA IC50
E. Coli RNAP, sequence (P0A8V2 whole entry): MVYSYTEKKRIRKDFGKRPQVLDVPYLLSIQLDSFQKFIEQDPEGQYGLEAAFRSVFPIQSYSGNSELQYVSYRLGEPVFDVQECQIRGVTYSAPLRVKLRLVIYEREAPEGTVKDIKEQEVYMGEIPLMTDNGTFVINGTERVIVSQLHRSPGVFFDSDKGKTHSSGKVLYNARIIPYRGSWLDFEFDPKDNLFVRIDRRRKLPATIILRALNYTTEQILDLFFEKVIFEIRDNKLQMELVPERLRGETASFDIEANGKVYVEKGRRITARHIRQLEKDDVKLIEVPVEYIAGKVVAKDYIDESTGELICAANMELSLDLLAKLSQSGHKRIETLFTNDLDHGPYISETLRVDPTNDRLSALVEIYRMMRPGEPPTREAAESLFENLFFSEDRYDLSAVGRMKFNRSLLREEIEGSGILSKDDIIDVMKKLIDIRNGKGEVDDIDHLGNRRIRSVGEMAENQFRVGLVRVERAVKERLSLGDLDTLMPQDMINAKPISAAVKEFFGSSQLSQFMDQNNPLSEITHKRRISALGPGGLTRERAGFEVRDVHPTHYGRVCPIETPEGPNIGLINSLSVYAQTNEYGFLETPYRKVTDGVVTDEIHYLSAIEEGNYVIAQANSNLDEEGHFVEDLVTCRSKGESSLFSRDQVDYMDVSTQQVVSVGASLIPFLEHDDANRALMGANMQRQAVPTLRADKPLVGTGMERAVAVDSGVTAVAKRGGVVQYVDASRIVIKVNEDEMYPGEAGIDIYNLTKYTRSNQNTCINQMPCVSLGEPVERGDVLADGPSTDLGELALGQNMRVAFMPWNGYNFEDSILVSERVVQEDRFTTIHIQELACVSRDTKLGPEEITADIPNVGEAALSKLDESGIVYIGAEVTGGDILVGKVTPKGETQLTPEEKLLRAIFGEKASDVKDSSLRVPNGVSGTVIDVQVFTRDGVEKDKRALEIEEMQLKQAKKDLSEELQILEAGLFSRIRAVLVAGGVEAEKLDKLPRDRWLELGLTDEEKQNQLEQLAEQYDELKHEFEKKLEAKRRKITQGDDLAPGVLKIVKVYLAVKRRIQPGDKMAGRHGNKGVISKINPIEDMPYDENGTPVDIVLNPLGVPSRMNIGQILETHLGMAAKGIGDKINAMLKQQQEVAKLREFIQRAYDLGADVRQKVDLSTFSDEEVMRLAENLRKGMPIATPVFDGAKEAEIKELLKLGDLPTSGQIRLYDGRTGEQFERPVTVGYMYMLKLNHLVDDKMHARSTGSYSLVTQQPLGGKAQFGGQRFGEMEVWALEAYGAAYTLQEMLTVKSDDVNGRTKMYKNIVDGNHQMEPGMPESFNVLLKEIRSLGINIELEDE
E. Coli RNAP, sequence (P0A8T7 whole entry): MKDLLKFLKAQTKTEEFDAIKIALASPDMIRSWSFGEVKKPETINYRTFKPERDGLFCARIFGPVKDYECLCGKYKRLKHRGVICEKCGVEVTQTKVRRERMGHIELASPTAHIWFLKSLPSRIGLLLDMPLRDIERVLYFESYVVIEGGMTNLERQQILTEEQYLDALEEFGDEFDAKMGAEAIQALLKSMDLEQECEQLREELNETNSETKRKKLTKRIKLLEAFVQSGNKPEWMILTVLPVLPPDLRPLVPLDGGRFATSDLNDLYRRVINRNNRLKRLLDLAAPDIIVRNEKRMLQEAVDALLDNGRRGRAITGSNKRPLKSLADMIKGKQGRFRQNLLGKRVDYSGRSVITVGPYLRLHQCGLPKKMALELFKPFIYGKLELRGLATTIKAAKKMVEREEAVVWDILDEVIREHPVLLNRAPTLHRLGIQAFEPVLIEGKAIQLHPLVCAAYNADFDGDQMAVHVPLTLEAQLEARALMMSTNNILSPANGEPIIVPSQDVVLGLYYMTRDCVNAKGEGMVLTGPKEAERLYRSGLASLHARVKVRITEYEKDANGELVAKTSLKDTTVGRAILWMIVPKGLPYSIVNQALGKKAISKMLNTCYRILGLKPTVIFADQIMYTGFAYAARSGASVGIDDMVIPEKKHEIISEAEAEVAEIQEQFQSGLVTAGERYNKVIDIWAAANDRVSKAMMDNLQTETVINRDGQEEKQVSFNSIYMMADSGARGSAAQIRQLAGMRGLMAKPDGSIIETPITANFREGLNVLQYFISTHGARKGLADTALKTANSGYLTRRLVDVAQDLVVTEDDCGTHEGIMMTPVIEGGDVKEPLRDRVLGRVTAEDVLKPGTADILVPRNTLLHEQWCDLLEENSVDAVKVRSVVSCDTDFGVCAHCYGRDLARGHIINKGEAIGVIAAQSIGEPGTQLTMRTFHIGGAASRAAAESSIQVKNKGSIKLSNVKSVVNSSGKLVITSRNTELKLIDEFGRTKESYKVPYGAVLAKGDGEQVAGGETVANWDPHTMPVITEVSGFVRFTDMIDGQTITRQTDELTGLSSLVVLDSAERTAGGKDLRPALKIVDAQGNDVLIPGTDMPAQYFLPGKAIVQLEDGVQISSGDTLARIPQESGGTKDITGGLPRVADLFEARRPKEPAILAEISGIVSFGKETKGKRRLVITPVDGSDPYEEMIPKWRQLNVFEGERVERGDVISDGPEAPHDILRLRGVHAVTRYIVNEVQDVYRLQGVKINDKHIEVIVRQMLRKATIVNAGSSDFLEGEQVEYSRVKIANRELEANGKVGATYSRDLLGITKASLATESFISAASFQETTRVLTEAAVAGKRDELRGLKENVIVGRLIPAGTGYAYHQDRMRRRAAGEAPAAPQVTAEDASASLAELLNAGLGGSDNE
E. Coli RNAP, sequence (P0A7Z4 whole entry partner): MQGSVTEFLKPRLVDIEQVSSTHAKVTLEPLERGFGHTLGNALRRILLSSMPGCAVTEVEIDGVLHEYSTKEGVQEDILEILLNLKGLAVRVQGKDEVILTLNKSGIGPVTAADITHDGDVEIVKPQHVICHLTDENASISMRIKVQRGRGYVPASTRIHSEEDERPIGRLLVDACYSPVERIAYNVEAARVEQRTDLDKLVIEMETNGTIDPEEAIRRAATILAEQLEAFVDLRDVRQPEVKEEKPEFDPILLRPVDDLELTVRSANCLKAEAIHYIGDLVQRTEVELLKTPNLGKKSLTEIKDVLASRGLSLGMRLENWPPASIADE
E. Coli RNAP, sequence (P0A800 whole entry partner): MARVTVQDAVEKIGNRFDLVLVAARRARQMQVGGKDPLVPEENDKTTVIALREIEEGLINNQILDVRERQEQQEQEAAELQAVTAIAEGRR
Source text: (§4) These properties can be determined according to techniques that are well known in the art.

[3] = test system: S. pneumonia 1, ATCC49619 (erythromycin susceptible); test: MIC determination (bacteria), P1; type: cell-based
Experimental: as §2, §3

[4] = test system: mammalian_red blood cell membrane; test: In vitro mammalian red blood cell membrane lysis activity; type: cell-based; details: read-out: RBC IC50
Source text: as §4

S. aureus membrane = test: In vitro activity in depolarization of S. aureus membrane; type: cell-based; details: read-out: DEP IC50
Source text: as §4

[5] = test system: human peripheral blood cells; test: in vitro toxicities human peripheral blood cells; type: cell-based
Source text: as §4

[6] = test system: S. aureus 1, ATCC13709 in vivo (methicillin sensitive); test: MIC determination (bacteria), S1; type: cell-based
Experimental: as §2, §3

[7] = test system: S. aureus 26, ATCC25923 (vancomycin susceptible); test: MIC determination (bacteria), S26; type: cell-based
Experimental: as §2, §3

[8] = test system: H. influenzae 4, LS2 Efflux ko; test: MIC determination (bacteria), H4; type: cell-based
Experimental: as §2, §3

plasma protein = type: in vitro ADME
Source text: as §4

[9] = test system: S. pneumonia 9, (multi-drug resistant); test: MIC determination (bacteria), P9 / P9B; type: cell-based; details: for MIC P9: S. pneumonia 9, multi-drug resistant; for MIC P9B: S. pneumonia 9 in presence of 2.5% horse blood
Experimental: as §2, §3

Candida albicans = test: MIC determination (fungus), Candida albicans; type: cell-based
Experimental: MIC Determination (Fungus); MICs were determined for the antifungus by microdilution methods using RPMI 1640 medium buffered with morpholinopropanesulfonic acid (MOPS) and supplemented with L-glutamine as described by CLSI procedures (M27-A method) (Reference method for broth dilution antifungal susceptibility testing of yeasts; Approved standard—[…]. 2006, M27-A2, CLSI, Wayne Pa.).

[10] = test system: S. aureus 2, (MRSA in vivo); test: MIC determination (bacteria), S2; type: cell-based
Experimental: as §2, §3

[11] = type: physicochemical; details: pH 7.4
Source text: as §4

[12] = test system: E. faecalis 1, ATCC29212 VanS (vancomycin susceptible); test: MIC determination (bacteria), E1; type: cell-based
Experimental: as §2, §3

[13] = test system: H. influenzae 3, ATCC31517 MMSA; test: MIC determination (bacteria), H3; type: cell-based
Experimental: as §2, §3

S. aureus 4, Oxford = test: MIC determination (bacteria), S4; type: cell-based
Experimental: as §2, §3

[14] = test system: human embryonic kidney 293 cells; test: in vitro toxicities against human embryonic kidney 293 cells; type: cell-based
Source text: as §4

S. pneumonia UPPS = target: T1, S. pneumonia UPPS (Streptococcus pneumoniae serotype 4, UniProt Q97SR4); test: In vitro activity against S. pneumonia UPPS; type: biochemical; details: read-out: UPP IC50
T1 sequence (Q97SR4 1-252): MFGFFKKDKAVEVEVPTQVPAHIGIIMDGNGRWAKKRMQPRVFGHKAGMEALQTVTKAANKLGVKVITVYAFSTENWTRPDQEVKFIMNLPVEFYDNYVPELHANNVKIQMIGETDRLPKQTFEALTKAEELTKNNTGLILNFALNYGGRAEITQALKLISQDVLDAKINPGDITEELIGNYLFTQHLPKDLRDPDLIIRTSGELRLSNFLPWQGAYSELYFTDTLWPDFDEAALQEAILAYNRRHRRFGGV
Source text: as §4

CCOC(=O)CC(=O)N1C(c2ccc(F)cc2Cl)SC[C@@H]1C(=O)OC (stereo partly shown)
Bioactivity (mm) E. coli (4 mg/ml) (E. coli X580; 4 mg/ml): 16 mm

CCOC(=O)C1=C(O)C2CSC(c3cccc(Br)c3)N2C1=O (stereo not shown)
Bioactivity (mm) S. aureus (4 mg/ml) ([1]; Cm): 2.0 Cm

CC(C)(C)C1OCC2(C)C(O)=C(C(=O)NCC3CCCCC3)C(=O)N12 (racemic) [(±)-2E]
MIC E2 [2]: 1 µg/mL (≈ 2.85 µM) | IC50 (E. Coli RNAP): 31 µM | MIC P1 [3]: 2 µg/mL (≈ 5.71 µM) | IC50 [4]: > 100 µM | IC50 (S. aureus membrane): 84.3 µM | PMB LD50 [5]: 90.9 µM | MIC S1 [6]: 4 µg/mL (≈ 11.4 µM) | MIC S26 [7]: 4 µg/mL (≈ 11.4 µM) | MIC H4 [8]: 0.12 µg/mL (≈ 0.342 µM) | PPB (plasma protein): 96.6% | MIC P9 [9]: 1 µg/mL (≈ 2.85 µM) | MIC P9B [9]: 1 µg/mL | CAN MIC (Candida albicans): >32 µg/mL | MIC S2 [10]: 2 µg/mL (≈ 5.71 µM) | SOL [11]: >300 µM | MIC E1 [12]: 2 µg/mL (≈ 5.71 µM) | MIC H3 [13]: 4 µg/mL (≈ 11.4 µM) | MIC S4 (S. aureus 4, Oxford): 4 µg/mL (≈ 11.4 µM) | HEK LD50 [14]: 90.9 µM | IC50 (S. pneumonia UPPS): 0.68 µM

CCOC(=O)C1=C(O)C2CS[C@@H](c3ccc(F)cc3Cl)N2C1=O (stereo partly shown)
Bioactivity (mm) S. aureus (4 mg/ml) [1]: 18 mm

CCOC(=O)C12C(=O)C(=C(O)CC34CC5CC(C)(CC(C)(C5)C3)C4)C(=O)N1C(C(C)(C)C)OC2C (racemic) [Compound 6C]
MIC E2 [2]: 1 µg/mL (≈ 2.05 µM) | IC50 (E. Coli RNAP): 4 µM | MIC P1 [3]: 0.5 µg/mL (≈ 1.03 µM) | IC50 [4]: > 100 µM | IC50 (S. aureus membrane): > 100 µM | PMB LD50 [5]: >90.9 µM | MIC S1 [6]: 2 µg/mL (≈ 4.1 µM) | MIC S26 [7]: 2 µg/mL (≈ 4.1 µM) | MIC H4 [8]: 0.25 µg/mL (≈ 0.513 µM) | PPB (plasma protein): 99.8% | MIC P9 [9]: 0.5 µg/mL (≈ 1.03 µM) | MIC P9B [9]: 1 µg/mL | CAN MIC (Candida albicans): >32 µg/mL | MIC S2 [10]: 1 µg/mL (≈ 2.05 µM) | SOL [11]: >300 µM | MIC E1 [12]: 2 µg/mL (≈ 4.1 µM) | MIC H3 [13]: 64 µg/mL (≈ 131 µM) | MIC S4 (S. aureus 4, Oxford): 2 µg/mL (≈ 4.1 µM) | HEK LD50 [14]: 90.9 µM | IC50 (S. pneumonia UPPS): 3.2 µM

CCOC(=O)C1=C(O)C2CSC(c3ccc(Br)cc3)N2C1=O (stereo not shown)
Bioactivity (mm) S. aureus (4 mg/ml) ([1]; Cm): 1.7 Cm

CCOC(=O)C1=C(O)C2CSC(c3ccc(CO[Si](C)(C)C(C)(C)C)cc3)N2C1=O (stereo not shown)
Bioactivity (mm) S. aureus (4 mg/ml) ([1]; Cm): 2.3 Cm

O=C(NC12CC3CC(CC(C3)C1)C2)C1=C(O)C2CS[C@@H](c3ccc([N+](=O)[O-])cc3)N2C1=O (stereo partly shown)
Bioactivity (mm) E. coli 0.01 mg/ml (E. coli X580): 14 mm | Bioactivity (mm) S. aureus 0.001 mg/ml [1]: 19 mm | Bioactivity (mm) S. aureus 0.01 mg/ml [1]: 25 mm

CC(C)(C)C1OCC2(C)C(=O)C(C(=O)NC34CC5CC(CC(C5)C3)C4)C(=O)N12 (racemic) [(±)-2A]
MIC E2 [2]: 1 µg/mL (≈ 2.57 µM) | IC50 (E. Coli RNAP): 17 µM | MIC P1 [3]: 1 µg/mL (≈ 2.57 µM) | IC50 [4]: > 100 µM | IC50 (S. aureus membrane): 10.8 µM | PMB LD50 [5]: 30.3 µM | MIC S1 [6]: 1 µg/mL (≈ 2.57 µM) | MIC S26 [7]: 2 µg/mL (≈ 5.15 µM) | MIC H4 [8]: 1 µg/mL (≈ 2.57 µM) | MIC P9 [9]: 1 µg/mL (≈ 2.57 µM) | MIC P9B [9]: 1 µg/mL | CAN MIC (Candida albicans): >32 µg/mL | MIC S2 [10]: 1 µg/mL (≈ 2.57 µM) | SOL [11]: 75 to 150 µM | MIC E1 [12]: 1 µg/mL (≈ 2.57 µM) | MIC H3 [13]: 2 µg/mL (≈ 5.15 µM) | MIC S4 (S. aureus 4, Oxford): 1 µg/mL (≈ 2.57 µM) | HEK LD50 [14]: 30.3 µM | IC50 (S. pneumonia UPPS): 0.38 µM

O=C(NC12CC3CC(CC(C3)C1)C2)C1=C(O)C2CS[C@@H](c3ccc(F)cc3)N2C1=O (stereo partly shown)
Bioactivity (mm) E. coli 0.01 mg/ml (E. coli X580): 14 mm | Bioactivity (mm) S. aureus 0.001 mg/ml [1]: 21 mm | Bioactivity (mm) S. aureus 0.01 mg/ml [1]: 27 mm

O=C(NC12CC3CC(CC(C3)C1)C2)C1=C(O)C2CS[C@@H](c3ccc(F)cc3Cl)N2C1=O (stereo partly shown)
Bioactivity (mm) E. coli 0.01 mg/ml (E. coli X580): 14 mm | Bioactivity (mm) S. aureus 0.001 mg/ml [1]: 21 mm | Bioactivity (mm) S. aureus 0.01 mg/ml [1]: 25 mm

CC(C)(C)[Si](C)(C)OCc1ccc([C@@H]2SCC3C(O)=C(C(=O)NC45CC6CC(CC(C6)C4)C5)C(=O)N32)cc1 (stereo partly shown)
Bioactivity (mm) S. aureus 0.25 mg/ml [1]: 12 mm | Bioactivity (mm) S. aureus 0.5 mg/ml [1]: 13 mm

O=C(NC12CC3CC(CC(C3)C1)C2)C1=C(O)C2CS[C@@H](c3ccccc3)N2C1=O (stereo partly shown)
Bioactivity (mm) E. coli 0.001 mg/ml (E. coli X580; 0.001 mg/ml): 15 mm | Bioactivity (mm) E. coli 0.01 mg/ml (E. coli X580): 15 mm | Bioactivity (mm) S. aureus 0.01 mg/ml [1]: 22 mm

CCOC(=O)C1=C(O)C2CS[C@@H](c3ccc([N+](=O)[O-])cc3)N2C1=O (stereo partly shown)
Bioactivity (mm) S. aureus (4 mg/ml) [1]: 16 mm

Cc1cc(Cl)ccc1NC(=O)C1=C(O)C2CS[C@@H](c3ccc(Br)cc3)N2C1=O (stereo partly shown)
Bioactivity (mm) S. aureus 0.25 mg/ml [1]: 25 mm | Bioactivity (mm) S. aureus 0.5 mg/ml [1]: 26 mm

CCOC(=O)C12C(=O)C(=C(O)CC(C)(C)CC(=O)OCCC34CC5CC(CC(C5)C3)C4)C(=O)N1C(C(C)(C)C)OC2C (racemic) [Compound 6G]
MIC E2 [2]: 0.5 µg/mL (≈ 0.851 µM) | IC50 (E. Coli RNAP): 2.4 µM | MIC P1 [3]: 2 µg/mL (≈ 3.4 µM) | IC50 [4]: > 100 µM | IC50 (S. aureus membrane): > 100 µM | PMB LD50 [5]: >90.9 µM | MIC S1 [6]: 0.5 µg/mL (≈ 0.851 µM) | MIC S26 [7]: 1 µg/mL (≈ 1.7 µM) | MIC H4 [8]: 2 µg/mL (≈ 3.4 µM) | MIC P9 [9]: 1 µg/mL (≈ 1.7 µM) | MIC P9B [9]: 4 µg/mL | CAN MIC (Candida albicans): >32 µg/mL | MIC S2 [10]: 0.5 µg/mL (≈ 0.851 µM) | SOL [11]: >300 µM | MIC E1 [12]: 1 µg/mL (≈ 1.7 µM) | MIC H3 [13]: >64 µg/mL | MIC S4 (S. aureus 4, Oxford): 1 µg/mL (≈ 1.7 µM) | HEK LD50 [14]: 10.1 µM | IC50 (S. pneumonia UPPS): 1.9 µM
